According to patent US10961200B2, “Small molecule inhibitors of lactate dehydrogenase and methods of use thereof” (THE UNITED STATES OF AMERICA, AS REPRESENTED BY THE …, priority 2014, dated 2021):

Biological target: Human LDHA (Homo sapiens (Human), UniProt P00338)
Experiment: human LDHA primary biochemical assay (resazurin/diaphorase coupled, fluorescence)
Details: LDHA inhibitory activity, assay of Example 1; activity level classes
From the text: Test compounds were placed in a Greiner Bio-One (Monroe, N.C.) 1536-well black solid bottom assay plate. 200 millimolar (mM) Tris HCl, pH 7.4, 100 micromolar […] EDTA and 0.01% TWEEN-20™, final concentration, was used as the assay buffer. The LDHA reagent was 2 nanomolar (nM) Human LDHA (Meridian Life Science, Inc., Memphis, Tenn.), final concentration, in assay buffer.

SMILES | IC50
CC(C)C(=O)OCOC(=O)c1csc(-n2nc(-c3ccc(F)c(F)c3)cc2O)n1 [Compound 109, (isobutyryloxy)methyl 2-(3-(3,4-difluorophenyl)-5-hydroxy-1H-pyrazol-1-yl)thiazole-4-carboxylate] | > 57 µM
O=C(O)c1csc(-n2nc(-c3ccc(F)c(S(=O)(=O)NCc4ccccc4)c3)cc2O)n1 [Compound 110, 2-(3-(3-(N-benzylsulfamoyl)-4-fluorophenyl)-5-hydroxy-1H-pyrazol-1-yl)thiazole-4-carboxylic acid] | > 57 µM
O=C(O)c1csc(-n2nc(-c3ccc(NS(=O)(=O)C4CC4)c(F)c3)cc2O)n1 [Compound 111, 2-(3-(4-(cyclopropanesulfonamido)-3-fluorophenyl)-5-hydroxy-1H-pyrazol-1-yl)thiazole-4-carboxylic acid] | > 57 µM
O=C(O)c1csc(-n2nc(-c3ccc(CCNS(=O)(=O)C4CC4)c(F)c3)cc2O)n1 [Compound 112, 2-(3-(4-(2-(cyclopropanesulfonamido)ethyl)-3-fluorophenyl)-5-hydroxy-1H-pyrazol-1-yl)thiazole-4-carboxylic acid] | > 57 µM
O=C(O)c1csc(-n2nc(-c3ccc(F)c(F)c3)c(Cc3ccccc3)c2O)n1 [Compound 113, 2-(4-benzyl-3-(3,4-difluorophenyl)-5-hydroxy-1H-pyrazol-1-yl)thiazole-4-carboxylic acid] | > 57 µM
CNS(=O)(=O)c1cc(-c2cc(O)n(-c3nc(C(=O)O)cs3)n2)ccc1F [Compound 114, 2-(3-(4-fluoro-3-(N-methylsulfamoyl)phenyl)-5-hydroxy-1H-pyrazol-1-yl)thiazole-4-carboxylic acid] | > 57 µM
COC(=O)c1csc2c1c(=O)[nH]c1cc(-c3ccc(F)c(F)c3)nn12 [Compound 115, methyl 2-(3,4-difluorophenyl)-5-oxo-4,5-dihydropyrazolo[1,5-a]thieno[3,2-e]pyrimidine-6-carboxylate] | > 57 µM
O=C(O)c1csc2c1c(=O)[nH]c1cc(-c3ccc(F)c(F)c3)nn12 [Compound 116, 2-(3,4-difluorophenyl)-5-oxo-4,5-dihydropyrazolo[1,5-a]thieno[3,2-e]pyrimidine-6-carboxylic acid] | > 57 µM
CC(C)(C)OC(=O)c1csc(-n2nc(-c3ccc(F)c(F)c3)c(Cc3cccc(S(N)(=O)=O)c3)c2O)n1 [Compound 117, tert-butyl 2-(3-(3,4-difluorophenyl)-5-hydroxy-4-(3-sulfamoylbenzyl)-1H-pyrazol-1-yl)thiazole-4-carboxylate] | > 57 µM
CC(C)(C)OC(=O)c1csc(-n2nc(-c3ccc(F)c(F)c3)c(-c3ccccc3)c2O)n1 [Compound 118, tert-butyl 2-(3-(3,4-difluorophenyl)-5-hydroxy-4-phenyl-1H-pyrazol-1-yl)thiazole-4-carboxylate] | > 57 µM
O=C(O)c1csc(-n2nc(-c3ccc(F)c(F)c3)c3cccc(O)c32)n1 [Compound 119, 2-(3-(3,4-difluorophenyl)-7-hydroxy-1H-indazol-1-yl)thiazole-4-carboxylic acid] | > 57 µM
CCOC(=O)c1csc(-n2nc(-c3ccc(F)c(F)c3)cc2O)n1 [Compound 121, ethyl 2-(3-(3,4-difluorophenyl)-5-hydroxy-1H-pyrazol-1-yl)thiazole-4-carboxylate] | > 57 µM
CS(=O)(=O)NCCc1cc(-c2cc(O)n(-c3nc(C(=O)O)cs3)n2)ccc1F [Compound 122, 2-(3-(4-fluoro-3-(2-(methylsulfonamido)ethyl)phenyl)-5-hydroxy-1H-pyrazol-1-yl)thiazole-4-carboxylic acid] | > 57 µM
CNS(=O)(=O)c1ccc(Cc2c(-c3cccc(-c4ccccc4)c3)nn(-c3nc(C(=O)O)cs3)c2O)cc1 [Compound 124, 2-(3-([1,1′-biphenyl]-3-yl)-5-hydroxy-4-(4-(N-methylsulfamoyl)benzyl)-1H-pyrazol-1-yl)thiazole-4-carboxylic acid] | > 57 µM
O=C(O)c1csc(-n2cc(-c3ccc(F)c(F)c3)c3cccc(O)c32)n1 [Compound 125, 2-(3-(3,4-difluorophenyl)-7-hydroxy-1H-indol-1-yl)thiazole-4-carboxylic acid] | > 57 µM
CC(=O)Nc1c(-c2ccccc2)nn(-c2nc(C(=O)O)cs2)c1O [Compound 126, 2-(4-acetamido-5-hydroxy-3-phenyl-1H-pyrazol-1-yl)thiazole-4-carboxylic acid] | > 57 µM
NC(=O)c1csc(-n2nc(-c3ccccc3)c(Cc3ccc(S(N)(=O)=O)cc3)c2C(F)(F)F)n1 [Compound 127, 2-(3-phenyl-4-(4-sulfamoylbenzyl)-5-(trifluoromethyl)-1H-pyrazol-1-yl)thiazole-4-carboxamide] | > 57 µM
NS(=O)(=O)c1ccc(NCc2cn(-c3nc(C(=O)O)cs3)nc2-c2ccccc2)cc1 [Compound 139, 2-(3-phenyl-4-(((4-sulfamoylphenyl)amino)methyl)-1H-pyrazol-1-yl)thiazole-4-carboxylic acid] | > 57 µM

Other lines, results leading:

IC50 | SMILES
> 57 µM | Nc1c(Cc2ccc(S(N)(=O)=O)cc2)c(-c2ccccc2)nn1-c1ccc(=O)[nH]n1 [Compound 128, 4-((5-amino-1-(6-oxo-1,6-dihydropyridazin-3-yl)-3-phenyl-1H-pyrazol-4-yl)methyl)benzenesulfonamide]
> 57 µM | CCOC(=O)c1cccc(-n2nc(-c3ccccc3)c(Cc3ccc(S(N)(=O)=O)cc3)c2N)c1 [Compound 129, ethyl 3-(5-amino-3-phenyl-4-(4-sulfamoylbenzyl)-1H-pyrazol-1-yl)benzoate]
> 57 µM | Nc1c(Cc2ccc(S(N)(=O)=O)cc2)c(-c2ccccc2)nn1-c1cccc(C(=O)O)c1 [Compound 130, 3-(5-amino-3-phenyl-4-(4-sulfamoylbenzyl)-1H-pyrazol-1-yl)benzoic acid]
> 57 µM | Nc1c(Cc2ccc(S(N)(=O)=O)cc2)c(-c2ccccc2)nn1-c1nc(CO)cs1 [Compound 131, 4-((5-amino-1-(4-(hydroxymethyl)thiazol-2-yl)-3-phenyl-1H-pyrazol-4-yl)methyl)benzenesulfonamide]
> 57 µM | NS(=O)(=O)c1ccc(Cc2c(-c3ccccc3)nn(-c3nc(CO)cs3)c2Cc2nnn[nH]2)cc1 [Compound 132, 4-((5-((1H-tetrazol-5-yl)methyl)-1-(4-(hydroxymethyl)thiazol-2-yl)-3-phenyl-1H-pyrazol-4-yl)methyl)benzenesulfonamide]
> 57 µM | COC(=O)c1csc(-n2nc(-c3ccccc3)c(Cc3ccc(S(N)(=O)=O)cc3)c2Cc2nnn[nH]2)n1 [Compound 133]
> 57 µM | CCOC(=O)c1csc(-n2nc(-c3ccccc3)c(Cc3ccc(S(N)(=O)=O)cc3)c2Cc2nnn[nH]2)n1 [Compound 134, ethyl 2-(5-((1H-tetrazol-5-yl)methyl)-3-phenyl-4-(4-sulfamoylbenzyl)-1H-pyrazol-1-yl)thiazole-4-carboxylate]
> 57 µM | CCOC(=O)c1csc(-n2nc(-c3ccccc3)c(Cc3ccc(S(N)(=O)=O)cc3)c2CC#N)n1 [Compound 135, ethyl 2-(5-(cyanomethyl)-3-phenyl-4-(4-sulfamoylbenzyl)-1H-pyrazol-1-yl)thiazole-4-carboxylate]
> 57 µM | Nc1c(Cc2ccc(S(N)(=O)=O)cc2)c(-c2ccccc2)nn1-c1nc(C(F)(F)F)cs1 [Compound 137, 4-((5-amino-3-phenyl-1-(4-(trifluoromethyl)thiazol-2-yl)-1H-pyrazol-4-yl)methyl)benzenesulfonamide]
> 57 µM | O=C(O)c1csc(-n2cc(CNS(=O)(=O)N3CCNCC3)c(-c3ccccc3)n2)n1 [Compound 138, 2-(3-phenyl-4-((piperazine-1-sulfonamido)methyl)-1H-pyrazol-1-yl)thiazole-4-carboxylic acid]
> 57 µM | CCOC(=O)c1ccc(-n2nc(-c3ccccc3)c(Cc3ccc(S(N)(=O)=O)cc3)c2N)nn1 [Compound 140, ethyl 6-(5-amino-3-phenyl-4-(4-sulfamoylbenzyl)-1H-pyrazol-1-yl)pyridazine-3-carboxylate]
> 57 µM | NS(=O)(=O)c1ccc(CNc2cn(-c3nc(C(=O)O)cs3)nc2-c2ccccc2)cc1 [Compound 142, 2-(3-phenyl-4-((4-sulfamoylbenzyl)amino)-1H-pyrazol-1-yl)thiazole-4-carboxylic acid]
> 57 µM | Cn1ncc(C(=O)n2nc(-c3ccccc3)c(Cc3ccc(S(N)(=O)=O)cc3)c2N)c1N [Compound 143, 4-((5-amino-1-(5-amino-1-methyl-1H-pyrazole-4-carbonyl)-3-phenyl-1H-pyrazol-4-yl)methyl)benzenesulfonamide]
> 57 µM | Nc1c(Cc2ccc(S(N)(=O)=O)cc2)c(-c2ccccc2)nn1-c1cc(C(=O)O)ccn1 [Compound 145, 2-(5-amino-3-phenyl-4-(4-sulfamoylbenzyl)-1H-pyrazol-1-yl)isonicotinic acid]
> 57 µM | Nc1c(Cc2ccc(S(N)(=O)=O)cc2)c(-c2ccccc2)nn1C(=O)c1cccc2cc[nH]c12 [Compound 150, 4-((5-ammo-1-(1H-indole-7-carbonyl)-3-phenyl-1H-pyrazol-4-yl)methyl)benzenesulfonamide]

Same assay, conditions: read-out: Inhibitory activity IC50

IC50 | SMILES
1 to 57 µM | CCOC(=O)c1csc(-n2nc(-c3ccc(F)c(F)c3)c(Cc3ccc(S(N)(=O)=O)cc3)c2N)n1 [Compound 123, ethyl 2-(5-amino-3-(3,4-difluorophenyl)-4-(4-sulfamoylbenzyl)-1H-pyrazol-1-yl)thiazole-4-carboxylate]
1 to 57 µM | Nc1c(Cc2ccc(S(N)(=O)=O)cc2)c(-c2ccccc2)nn1-c1cccc(C(=O)O)n1 [Compound 144, 6-(5-amino-3-phenyl-4-(4-sulfamoylbenzyl)-1H-pyrazol-1-yl)picolinic acid]
0.1 to 1 µM | Cc1oc(=O)oc1COC(=O)c1csc(-n2cc(Cc3ccc(S(N)(=O)=O)cc3)c(-c3ccccc3)n2)n1 [Compound 149, (5-methyl-2-oxo-1,3-dioxol-4-yl)methyl 2-(3-phenyl-4-(4-sulfamoylbenzyl)-1H-pyrazol-1-yl)thiazole-4-carboxylate]
